Results on 1 molecule are retold here after patent US20050239813A1, “Pharmaceutical compositions comprising fk506 derivatives and their use for the treatment of allergic diseases” (Sucampo Pharmaceuticals Inc., priority 2002, published 2005).

Molecules are shown by their SMILES.

For the experiment, the system named is Human patients with a history of allergy. In words: Allergen challenge of human patients after FK506 eye drops; ocular itching score. The experiment is classed as in vivo. The procedure:
Human patients with a history of allergy were divided into 5 groups and treated in one eye with eye drop (placebo, 0.01% FK506, 0.03% FK506, 0.06% FK506 or 0.1% FK506), and the other eye with placebo. Each eye drop was administered 4 times per day for seven days and 16 hours after the final instillation, patients were administered allergen-containing eye drops at a concentration predetermined to cause a reaction in the patient. The one hundred patients having a baseline itching score of at lease 3, on a scale of 0 to 4, with 4 being most severe, were evaluated.

Take `C=CC[C@@H]1/C=C(\C)C[C@H](C)C[C@H](OC)[C@H]2O[C@@](O)(C(=O)C(=O)N3CCCC[C@H]3C(=O)O[C@H](/C(C)=C/[C@@H]3CC[C@@H](O)[C@H](OC)C3)[C@H](C)[C@@H](O)CC1=O)[C@H](C)C[C@@H]2OC` [FK506, 17-allyl-1,14-dihydroxy-12-[2-(4-hydroxy-3-methoxycyclohexyl)-1-methylvinyl]-23,25-dimethoxy-13,19,21,27-tetramethyl-11,28-dioxa-4-azatricyclo[22.3.1.0^4,9]octacos-18-ene-2,3,10,16-tetraone]: the “decrease from baseline itching score versus placebo” value (3 minutes post challenge, all concentrations (0.01%, 0.03%, 0.06%, 0.1% eye drops), 4 times per day for seven days, challenge 16 hours after final instillation) is given as “statistically significant versus placebo”. The “decrease from baseline itching score: dose response” value (eye drops 0.01%, 0.03%, 0.06% or 0.1% FK506, 4 times per day for seven days, allergen challenge 16 hours after final instillation, itching scale 0 to 4, FIG. 1) is listed as “pronounced dose response”.
